Results: patent publication US20220167618A1, “PESTICIDALLY ACTIVE AZOLE-AMIDE COMPOUNDS” (SYNGENTA CROP PROTECTION AG, priority 2019, published 2022)

Experiments:
Assay type in all cases: in vivo
[1] = system: Chilo suppressalis (Striped Rice Stemborer); test: Example B4: Chilo suppressalis (striped rice stemborer), artificial diet; settings: 144 h, application rate 200 ppm, L2 larvae, 6 days after infestation, read-out: control in at least one of the three categories (mortality, anti-feedant or growth inhibition)
Method: Example B4: Chilo suppressalis (Striped Rice Stemborer)
24-well microtiter plates with artificial diet were treated with aqueous test solutions prepared from 10′000 ppm DMSO stock solutions by pipetting. After drying, the plates were infested with L2 larvae (6-8 per well). The samples were assessed for mortality, anti-feeding effect, and growth inhibition in comparison to untreated samples 6 days after infestation. Control of Chilo suppressalis by a test sample is given when at least one of the categories mortality, anti-feedant effect, and growth inhibition is higher than the untreated sample.

[2] = system: Diabrotica balteata (Corn Root Worm); test: Example B1: Diabrotica balteata (corn root worm), sprayed maize sprouts; settings: 96 h, application rate 200 ppm, L2 larvae, 4 days after infestation, read-out: control in at least one of the two categories (mortality or growth inhibition)
Method: Example B1: Diabrotica balteata (Corn Root Worm)
Maize sprouts placed onto an agar layer in 24-well microtiter plates were treated with aqueous test solutions prepared from 10′000 ppm DMSO stock solutions by spraying. After drying, the plates were infested with L2 larvae (6 to 10 per well). The samples were assessed for mortality and growth inhibition in comparison to untreated samples 4 days after infestation.

[3] = system: Spodoptera littoralis (Egyptian Cotton Leaf Worm); test: Example B9: Spodoptera littoralis (Egyptian cotton leaf worm), sprayed cotton leaf discs; settings: foliar, 72 h, application rate 200 ppm, L1 larvae, 3 days after infestation, read-out: control in at least one of the three categories (mortality, anto-feedant or growth inhibition)
[4] = system: Euschistus heros (Neotropical Brown Stink Bug); test: Example B2: Euschistus heros (neotropical brown stink bug), sprayed soybean leaves; settings: 120 h, application rate 200 ppm, N2 nymphs, 5 days after infestation, read-out: control in at least one of the two categories (mortality or growth inhibition)
Method: Example B2: Euschistus heros (Neotropical Brown Stink Bug)
Soybean leaves on agar in 24-well microtiter plates were sprayed with aqueous test solutions prepared from 10′000 ppm DMSO stock solutions. After drying the leaves were infested with N2 nymphs. The samples were assessed for mortality and growth inhibition in comparison to untreated samples 5 days after infestation.

[5] = system: Plutella xylostella (Diamondback Moth); test: Example B13: Plutella xylostella (diamondback moth), artificial diet, 96-well; settings: 216 h, application rate 500 ppm, eggs/L1 larvae, 9 days after infestation
Method: Example B13: Plutella xylostella (Diamondback Moth)
96-well microtiter plates containing artificial diet were treated with aqueous test solutions, prepared from 10′000 ppm DMSO stock solutions, by a liquid handling robot. After drying, eggs (˜30 per well) were infested onto a netted lid which was suspended above the diet. The eggs hatch and L1 larvae move down to the diet. The samples were assessed for mortality 9 days after infestation.

[6] = system: Plutella xylostella (Diamond Back Moth); test: Example B5: Plutella xylostella (diamond back moth), artificial diet, 24-well; settings: 192 h, application rate 200 ppm, eggs, 8 days after infestation, read-out: control in at least one of the two categories (mortality or growth inhibition)
Method: Example B5: Plutella xylostella (Diamond Back Moth)
24-well microtiter plates with artificial diet were treated with aqueous test solutions prepared from 10′000 ppm DMSO stock solutions by pipetting. After drying, Plutella eggs were pipetted through a plastic stencil onto a gel blotting paper and the plate was closed with it. The samples were assessed for mortality and growth inhibition in comparison to untreated samples 8 days after infestation.

[7] = system: Myzus persicae (Green Peach Aphid); test: Example B12: Myzus persicae (green peach aphid), 96-well sucrose solution; settings: 120 h, application rate 50 ppm, 5 days after infestation
Description: Example B12: Myzus persicae (Green Peach Aphid)
Test compounds prepared from 10′000 ppm DMSO stock solutions were applied by a liquid handling robot into 96-well microtiter plates and mixed with a sucrose solution. Parafilm was stretched over the 96-well microtiter plate and a plastic stencil with 96 holes was placed onto the plate. Aphids were sieved into the wells directly onto the Parafilm. The infested plates were closed with a gel blotting card and a second plastic stencil and then turned upside down. The samples were assessed for mortality 5 days after infestation.

[8] = system: Spodoptera littoralis (Egyptian Cotton Leaf Worm); test: Example B10: Spodoptera littoralis (Egyptian cotton leaf worm), uptake via lettuce roots from agar; settings: 144 h, test rate 12.5 ppm, eggs, 6 days after infestation, read-out: control in at least one of the three categories (mortality, anti-feedant, or growth inhibition)
Description: Example B10: Spodoptera Littoralis (Egyptian Cotton Leaf Worm)
Test compounds were applied by pipette from 10′000 ppm DMSO stock solutions into 24-well plates and mixed with agar. Lettuce seeds were placed onto the agar and the multi well plate was closed by another plate which contained also agar. After 7 days the compound was absorbed by the roots and the lettuce grew into the lid plate. The lettuce leaves were then cut off into the lid plate. Spodoptera eggs were pipetted through a plastic stencil onto a humid gel blotting paper and the lid plate was closed with it. The samples were assessed for mortality, anti-feedant effect and growth inhibition in comparison to untreated samples 6 days after infestation.

[9] = system: Myzus persicae (Green Peach Aphid); test: Example B8: Myzus persicae (green peach aphid), intrinsic activity; settings: 120 h, test rate 12 ppm, 5 days after infestation
Description: Example B8: Myzus persicae (Green Peach Aphid): Intrinsic Activity
Test compounds prepared from 10′000 ppm DMSO stock solutions were applied by pipette into 24-well microtiter plates and mixed with sucrose solution. The plates were closed with a stretched Parafilm. A plastic stencil with 24 holes was placed onto the plate and infested pea seedlings were placed directly on the Parafilm. The infested plate was closed with a gel blotting paper and another plastic stencil and then turned upside down. The samples were assessed for mortality 5 days after infestation.

CC(NC(=O)c1cc(C2CC2(F)F)cc(C(F)(F)F)c1)c1nc(Br)nn1-c1ncc(OCC(F)(F)F)cn1 (centres unmarked) [Compound P11, N-[1-[5-bromo-2-[5-(2,2,2-trifluoroethoxy)pyrimidin-2-yl]-1,2,4-triazol-3-yl]ethyl]-3-(2,2-difluorocyclopropyl)-5-(trifluoromethyl)benzamide]
≥ 80%: percent control (mortality, anti-feedant or growth inhibition) at 200 ppm [1] | percent control (mortality or growth inhibition) at 200 ppm [2] | percent control (mortality, anti-feedant or growth inhibition) at 200 ppm [3] | percent control (mortality or growth inhibition) at 200 ppm [4] | mortality at 500 ppm [5] | percent control (mortality or growth inhibition) at 200 ppm [6]

CC(NC(=O)c1cc(C2CC2)nc(C(F)(F)F)c1)c1nc(Br)nn1-c1ncc(OCC(F)F)cn1 (centres unmarked) [Compound P14, N-[1-[5-bromo-2-[5-(2,2-difluoroethoxy)pyrimidin-2-yl]-1,2,4-triazol-3-yl]ethyl]-2-cyclopropyl-6-(trifluoromethyl)pyridine-4-carboxamide]
≥ 80%: percent control (mortality, anti-feedant or growth inhibition) at 200 ppm [1] | percent control (mortality or growth inhibition) at 200 ppm [2] | percent control (mortality, anti-feedant or growth inhibition) at 200 ppm [3] | mortality at 50 ppm [7] | mortality at 500 ppm [5] | percent control (mortality or growth inhibition) at 200 ppm [6]

CC(NC(=O)c1cc(C(F)(F)F)cc(C2(C#N)CC2)c1)c1nc(Br)nn1-c1ccc(C#N)cn1 (centres unmarked) [Compound P1, N-[1-[5-bromo-2-(5-cyano-2-pyridyl)-1,2,4-triazol-3-yl]ethyl]-3-(1-cyanocyclopropyl)-5-(trifluoromethyl)benzamide]
≥ 80%: percent control (mortality, anti-feedant or growth inhibition) at 200 ppm [1] | percent control (mortality or growth inhibition) at 200 ppm [2] | percent control (mortality, anti-feedant or growth inhibition) at 12.5 ppm [8] | percent control (mortality, anti-feedant or growth inhibition) at 200 ppm [3] | percent control (mortality or growth inhibition) at 200 ppm [6]

CC(NC(=O)c1cc(C2CC2)cc(C(F)(F)F)c1)c1nc(Br)nn1-c1ncc(OC(F)F)cn1 (centres unmarked) [Compound P26, N-[1-[5-bromo-2-[5-(difluoromethoxy)pyrimidin-2-yl]-1,2,4-triazol-3-yl]ethyl]-3-cyclopropyl-5-(trifluoromethyl)benzamide]
≥ 80%: percent control (mortality, anti-feedant or growth inhibition) at 200 ppm [1] | percent control (mortality or growth inhibition) at 200 ppm [2] | percent control (mortality, anti-feedant or growth inhibition) at 200 ppm [3] | mortality at 50 ppm [7] | mortality at 500 ppm [5] | percent control (mortality or growth inhibition) at 200 ppm [6]

CC(NC(=O)c1cc(C(F)(F)F)nc(C2(C#N)CC2)c1)c1nc(Br)nn1-c1ncc(OCC(F)F)cn1 (centres unmarked) [Compound P4, N-[1-[5-bromo-2-[5-(2,2-difluoroethoxy)pyrimidin-2-yl]-1,2,4-triazol-3-yl]ethyl]-2-(1-cyanocyclopropyl)-6-(trifluoromethyl)pyridine-4-carboxamide]
≥ 80%: percent control (mortality, anti-feedant or growth inhibition) at 200 ppm [1] | percent control (mortality or growth inhibition) at 200 ppm [2] | mortality at 12 ppm [9] | percent control (mortality, anti-feedant or growth inhibition) at 200 ppm [3] | percent control (mortality or growth inhibition) at 200 ppm [6]

CC(NC(=O)c1cc(C(F)(F)F)cc(C(C)(C)C#N)c1)c1nc(Br)nn1-c1ccc(C#N)cn1 (centres unmarked) [Compound P36, N-[1-[5-bromo-2-(5-cyano-2-pyridyl)-1,2,4-triazol-3-yl]ethyl]-3-(1-cyano-1-methyl-ethyl)-5-(trifluoromethyl)benzamide]
≥ 80%: percent control (mortality, anti-feedant or growth inhibition) at 200 ppm [1] | percent control (mortality or growth inhibition) at 200 ppm [2] | percent control (mortality, anti-feedant or growth inhibition) at 200 ppm [3] | percent control (mortality or growth inhibition) at 200 ppm [4] | mortality at 500 ppm [5] | percent control (mortality or growth inhibition) at 200 ppm [6]

CC(NC(=O)c1cc(C2CC2(F)F)cc(C(F)(F)F)c1)c1nc(Br)nn1-c1ccc(OC(F)F)cn1 (centres unmarked) [Compound P7, N-[1-[5-bromo-2-[5-(difluoromethoxy)-2-pyridyl]-1,2,4-triazol-3-yl]ethyl]-3-(2,2-difluorocyclopropyl)-5-(trifluoromethyl)benzamide]
≥ 80%: percent control (mortality, anti-feedant or growth inhibition) at 200 ppm [1] | percent control (mortality or growth inhibition) at 200 ppm [2] | percent control (mortality, anti-feedant or growth inhibition) at 200 ppm [3] | mortality at 50 ppm [7] | mortality at 500 ppm [5] | percent control (mortality or growth inhibition) at 200 ppm [6]

CC(NC(=O)c1cc(C(F)(F)F)cc(C(C)(C)C#N)c1)c1nc(Br)nn1-c1ncc(OC(F)F)cn1 (centres unmarked) [Compound P35, N-[1-[5-bromo-2-[5-(difluoromethoxy)pyrimidin-2-yl]-1,2,4-triazol-3-yl]ethyl]-3-(1-cyano-1-methyl-ethyl)-5-(trifluoromethyl)benzamide]
≥ 80%: percent control (mortality, anti-feedant or growth inhibition) at 200 ppm [1] | percent control (mortality or growth inhibition) at 200 ppm [2] | mortality at 12 ppm [9] | percent control (mortality, anti-feedant or growth inhibition) at 12.5 ppm [8] | percent control (mortality, anti-feedant or growth inhibition) at 200 ppm [3] | mortality at 500 ppm [5] | percent control (mortality or growth inhibition) at 200 ppm [6]
